According to patent US20250269022A1, “ASSESSING AND TREATING CANCER” (Mayo Foundation for Medical Education and Research, priority 2021, published 2025):
Entries after “also recorded” stand apart in the source; their conditions may differ. Where two headings read alike, the source gives them in different places.

Key:
PD-L1 = target: T1, PD-L1 (Homo sapiens, UniProt Q9NZQ7); assay: CART19 antigen-specific proliferation with PD-L1 blockade in presence of PD-L1high CLL-derived EVs; assay type: cell-based; conditions: PD-L1high CLL-derived EVs 100:1, 6 hours, JeKo-1 at E:T 5:1, antibody 20 μg/mL
T1 construct: These PPP preparations from the peripheral blood of untreated CLL patients are the source of the samples called CLL-derived EVs; from tissue; host or cells: extracellular vesicles in platelet-poor plasma of untreated CLL patients, co-cultured with CART19 cells and then JeKo-1 cells
T1 sequence (Q9NZQ7 19-290): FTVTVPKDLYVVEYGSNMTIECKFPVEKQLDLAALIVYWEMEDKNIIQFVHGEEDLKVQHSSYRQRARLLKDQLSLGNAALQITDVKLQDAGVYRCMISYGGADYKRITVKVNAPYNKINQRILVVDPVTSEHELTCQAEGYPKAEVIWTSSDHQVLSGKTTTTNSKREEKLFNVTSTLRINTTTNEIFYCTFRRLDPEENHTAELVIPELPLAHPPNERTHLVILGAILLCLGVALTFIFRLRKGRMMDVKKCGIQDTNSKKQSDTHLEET
Experimental: CART19 and JeKo-1 or JeKo-1 cells irradiated at 120 Gy were cocultured at a 1:1 ratio with or without CLL-derived EVs. T cells for functional assays were cultured in T cell medium containing X-VIVO 15 (Lonza, Walkersville, MD, USA), 10% human serum albumin (Innovative Research, Novi, MI, USA), and 1% penicillin-streptomycin-glutamine (Gibco, Gaithersburg, MD, USA). EVs were cocultured with CART19 cells at 100:1, 10:1, 5:1, and 1:1 EV/CART cell ratios using three biological replicates of CLL-derived EVs at 37° C., 5% CO2, and then co-cultured with primary CLL cells or JeKo-1 cells as indicated in the specific experiment. Cell supernatant was collected at 24 hours, and cells were analyzed by flow cytometry. To assess killing and proliferation, UTD T cells, CART19 cells, and CART19 cells co-cultured with CLL-derived EVs at a 100:1 EV/CART cell ratio were incubated at 37° C., 5% CO2 for 6 hours before adding JeKo-1 target cells. […] Cells were analyzed by flow cytometry after 48 hours of incubation.

JeKo-1 cells [1] = assay: CART19 killing of luciferase+ JeKo-1 cells in combination with small molecules; assay type: cell-based
Experimental: CART19 cells were cultured in combination with different molecules at the indicated ratios/concentration, and in combination with the luciferase+ JeKo-1 cells at the indicated E:T ratios. Killing was determined after 24 hours using bioluminescence imaging.

CART cells [2] = assay: Proliferation assay of CART cells co-cultured with JeKo-1 cells, with navitoclax or venetoclax; assay type: cell-based
Description: Longitudinal navitoclax treatment of CART cells. […] Longitudinal treatments included two parts.
For proliferation assays, effector cells (CART cells), and irradiated target cells (CD19+ JeKo 1 cells) were co-cultured at different ratios and with different concentrations of the compounds. Cells were co-cultured for 3-5 days, and then cells were harvested and surface staining with antihCD3 (eBioscience, San Diego, CA, USA) and LIVE/DEAD™ Fixable Aqua Dead Cell Stain Kit (Invitrogen, Carlsbad, CA, USA) was performed.

JeKo-1 cells [3] = assay: Cytotoxicity (killing) assay of CART cells against luciferase+ JeKo-1 cells, with senolytics
Experimental: D8 CART cells were treated with navitoclax (0 μM, 0.5 μM, 1 μM, 2 μM, or 4 μM) for 24 hours and then divided into two groups. In the first group, navitoclax was washed away for proliferation and cytotoxicity assays. In the second group, navitoclax treatment was maintained during proliferation and cytotoxicity assays.
Longitudinal navitoclax treatment of CART cells. D15 and D22 CART cells were generated to mimic possible dysfunctions (e.g., exhaustion, senescence, etc.) that CART cells can develop. Serial activation of CART cells can induce T cell senescence during CART cell generation. This experiment was designed to selectively remove senescing CART cells during CART cell proliferation. During this experiment CART cells were pretreated with navitoclax, the proliferation, EDU, and cytotoxicity assays were done in the absence of navitoclax. Longitudinal treatments included two parts. Part I was a typical CART cell production protocol except for addition of navitoclax at D7 for 24 hours. Briefly, CART cells were activated on day 1, transduced on day 2, and debeaded on day 6. On day 7, CART cells were treated with navitoclax (0 μM, 0.125 μM, 0.25 μM, 0.5 μM, 0.75 μM, 1 μM, or 2 μM). On day 8, the navitoclax was washed away, and the CART cells were prepared for cytotoxicity assays and proliferation assays. For part II, JeKo-1 UDT was added to the CART cells on days 8 and 10, the media was replaced on day 12, and navitoclax was added on day 13. On day 14, the navitoclax was washed away, and the CART cells were prepared for cytotoxicity assays and proliferation assays or JeKo-1 IR was added and the CART cells were prepared for an EdU assay. The CART cells were provided several resting times after being activated by JeKo-1 to provide plenty of resting time to differentiate reversible exhaustion and irreversible T cell senescence. This assay focuses on D8 (freshly generated CART cells), D15 (D8 cells activated with JeKo-1 for a week as indicated as part II in the figure), and D22 CART cells (additional activation summarized in part II on D15 CART cells).
For killing assays, the CD19+ Luciferase+ mantle cell lymphoma cell like JeKo-1 cells were incubated with effector T cells for 24, 48, or 72 hours. Killing was calculated by bioluminescence imaging on a Xenogen IVIS-200 Spectrum camera (PerkinElmer, Hopkinton, MA, USA) as a measure of residual live cells. Samples were treated with 1 μL D-luciferin (30 μg/mL) per 100 μL sample volume (Gold Biotechnology, St. Louis, MO, USA), for 10 minutes prior to imaging.

CART cells [4] = assay: EdU assay of cycling CART cells; assay type: cell-based; conditions: navitoclax treated
Experimental: Longitudinal navitoclax treatment of CART cells. […] […] Longitudinal treatments included two parts. […] Cells were co-cultured for 3-5 days, and then cells were harvested and surface staining with […]3 (eBioscience, San Diego, CA, USA) and LIVE/DEADTM Fixable Aqua Dead Cell Stain Kit (Invitrogen, Carlsbad, CA, USA) was performed.

JeKo1 cell line = assay: In vivo JeKo1 xenograft with navitoclax-treated CART cells; parameters: species or system NSG mice
Description: NSG mice were engrafted with the luciferase positive, CD19+ JeKo1 cell line I.V. One week later, mice underwent bioluminescence imaging (BLI) to determine the level of the disease and then randomized to treatment with CART cells. Mice then underwent weekly BLI to measure disease burden and were followed for survival.

Question: Which results are given for atezolizumab [anti-PD-L1 antibody]?
Answer: Reversal of EV-mediated inhibition of CART19 antigen-specific proliferation (PD-L1): did not improve; Reversal of EV-mediated inhibition of CART19 antigen-specific proliferation (PD-L1; listed as PD-L1 blocking antibodies): no statistically significant reversal

Question: Which “CART19 antigen specific killing” value (JeKo-1 cells [1]) does the source give for CC(C)(CO)[C@@H](O)C(=O)NCCC(=O)NCCSSCCNC(=O)CCNC(=O)[C@H](O)C(C)(C)CO [panthethine, D-pantethine] here?
Answer: improved CART19 antigen specific killing

Question: Which “CART cell proliferation against JeKo-1 in combination with senolytic” value (CART cells [2]; CART cells co-cultured with JeKo-1 in presence of drug) does the source give for CC1(C)CCC(c2ccc(Cl)cc2)=C(CN2CCN(c3ccc(C(=O)NS(=O)(=O)c4ccc(N[C@H](CCN5CCOCC5)CSc5ccccc5)c(S(=O)(=O)C(F)(F)F)c4)cc3)CC2)C1 [navitoclax] here?
Answer: decreased CART cell proliferation

Question: What about the CART cell proliferation (CART cells [2]; D8 CART cells continuously treated with navitoclax, co-culture with JeKo-1, vs untreated CART cells) of the same compound?
Answer: decreased proliferation

Question: And the “D22 CART cell proliferation” value (CART cells [2]; longitudinal navitoclax treatment vs navitoclax untreated CART cells, in vitro)?
Answer: increase in D22 CART proliferation

Question: What about the “CART cell proliferation over time” value (CART cells [2]; longitudinal navitoclax treatment, D8, D15, D22) of the same compound?
Answer: decreased proliferation of CART cells through time; also recorded: decreases over time

Question: What about the “Cytotoxicity of drug alone against JeKo-1” value (JeKo-1 cells [3]; 0:1 E:T ratio (no CART)) of the same compound?
Answer: cytotoxic against JeKo-1

Question: What about the “CART cell cytotoxicity against JeKo-1 in combination with senolytic” value (JeKo-1 cells [3]; D8 CART cells co-cultured with JeKo-1 and drug, 48 hours) of the same compound?
Answer: increased CART cell cytotoxicity

Question: And the “CART cell cytotoxicity against JeKo-1” value (JeKo-1 cells [3]; navitoclax maintained in assay, higher navitoclax concentrations)?
Answer: decreased CART cell cytotoxicity

Question: What about the “CART cell cytotoxicity against JeKo-1” value (JeKo-1 cells [3]; navitoclax pre-treatment 24 hours, assay without navitoclax) of the same compound?
Answer: did not result in different cytotoxicity

Question: And the “EdU positivity of CART cells” value (CART cells [4]; D8 and D22 CART cells)?
Answer: similar

Question: And the “EdU positivity of CART cells” value (CART cells [4]; D15 CART cells)?
Answer: decreased

Question: What about the “Tumor burden of mice” value (JeKo1 cell line; D22 CART cells treated with or without navitoclax, 22 days after CART cell transplantation) of the same compound?
Answer: not different

Question: And the “Antitumor activity of CART cells in vivo” value (JeKo1 cell line; navitoclax pretreatment of CART cells)?
Answer: did not increase antitumor activity; also recorded: did not improve CART cell activity

Question: Which “CART19 antigen specific killing” value (JeKo-1 cells [1]; combination with CART19 cells, 24 hours, bioluminescence) does the source give for O=S(=O)(c1cccc2cnccc12)N1CCCNCC1 [fasudil] here?
Answer: improved CART19 antigen specific killing

Question: How did the “CART cell cytotoxicity against JeKo-1 in combination with senolytic” value (JeKo-1 cells [3]) turn out when CC1(C)CCC(CN2CCN(c3ccc(C(=O)NS(=O)(=O)c4ccc(NCC5CCOCC5)c([N+](=O)[O-])c4)c(Oc4cnc5[nH]ccc5c4)c3)CC2)=C(c2ccc(Cl)cc2)C1 [venetoclax] was run?
Answer: increased CART cell cytotoxicity
